Measurements as given in ChEMBL document CHEMBL4627394, “A Grand Challenge. 3. Unbiased Phenotypic Function of Metabolites from Australia Plants Gloriosa superba and Alangium villosum against Parkinson's Disease” (J Nat Prod, 2020).
The source made the active and inactive calls. No cut-off for these calls is given here.

Legend:
[1] = Cytotoxicity against Parkinson's disease patient derived human ONS cells assessed as effect on cell morphology parameters at 10 uM after 24 hrs by DAPI staining based fluorescence assay
[2] = Cytotoxicity against Parkinson's disease patient derived human ONS cells assessed as effect on nucleus morphology parameters at 10 uM after 24 hrs by DAPI staining based fluorescence assay
[3] = organism: Homo sapiens; test: Effect on early endosome parameters in Parkinson's disease patient derived human ONS cells at 10 uM after 24 hrs by EEA1 staining based fluorescence assay; format: functional

With `COC1=C[C@@H]2C3=C([C@@H]2C1=O)[C@@H](NC(C)=O)CCc1cc(OC)c(OC)c(OC)c13` the Activity [1] was “Non-Toxic” and the Activity [2] was “Non-Toxic”.

With `COC1=C[C@H]2C3=C([C@H]2C1=O)[C@@H](NC(C)=O)CCc1cc(OC)c(O[C@@H]2O[C@H](CO)[C@@H](O)[C@H](O)[C@H]2O)c(OC)c13` the Activity [1] was “Non-Toxic” and the Activity [2] was “Non-Toxic”.

For `CC[C@H]1CN2CCc3cc(O)c(OC)cc3[C@@H]2C[C@@H]1C[C@H]1NCCc2c1[nH]c1ccc(O)cc21.O=C(O)C(F)(F)F.O=C(O)C(F)(F)F`, the Activity [3] was “Active”, the Activity [1] was “Non-Toxic” and the Activity [2] was “Non-Toxic”.

For `COC1=C[C@@H]2C3=C([C@@H]2C1=O)[C@@H](NC(C)=O)CCc1cc(O[C@@H]2O[C@H](CO)[C@@H](O)[C@H](O)[C@H]2O)c(O)c(OC)c13`, the Activity [1] was “Non-Toxic” and the Activity [2] was “Non-Toxic”.

With `COC1=C[C@@H]2C3=C([C@@H]2C1=O)[C@@H](NC=O)CCc1cc(OC)c(O[C@@H]2O[C@H](CO)[C@@H](O)[C@H](O)[C@H]2O)c(OC)c13` the Activity [1] was “Non-Toxic” and the Activity [2] was “Non-Toxic”.

In the case of `COc1c2c(cc3c1-c1ccc(OC)c(=O)cc1[C@@H](NC(C)=O)CC3)OCO2`, the Activity [1] is reported as “Non-Toxic” and the Activity [2] is reported as “Non-Toxic”.

With `COc1cc2c(c(OC)c1OC)-c1ccc(OC)c(=O)cc1[C@@H](NC(C)=O)CC2` [COLCHICINE] the Activity [1] was “Non-Toxic” and the Activity [2] was “Non-Toxic”.

In the case of `COC1=C[C@@H]2C3=C([C@@H]2C1=O)[C@@H](NC(C)=O)CCc1cc(OC)c(O)c(OC)c13`, the Activity [1] is reported as “Non-Toxic” and the Activity [2] is reported as “Non-Toxic”.

For `CC[C@H]1CN2CCc3cc(OC)c(OC)cc3[C@@H]2C[C@@H]1C[C@@H]1NCCc2c1[nH]c1ccc(O)cc21.O=C(O)C(F)(F)F.O=C(O)C(F)(F)F`, the Activity [3] was “Active”, the Activity [1] was “Non-Toxic” and the Activity [2] was “Non-Toxic”.

With `COc1cc2c(c(OC)c1O)-c1ccc(OC)c(=O)cc1[C@@H](NC=O)CC2` the Activity [1] was “Non-Toxic” and the Activity [2] was “Non-Toxic”.

With `COc1cc2c(c(OC)c1O)-c1ccc(OC)c(=O)cc1[C@@H](NC(C)=O)CC2` [2-DESMETHYLCOLCHICIN] the Activity [1] was “Non-Toxic” and the Activity [2] was “Non-Toxic”.

In the case of `CC[C@H]1C[N@@+]2(O)CCc3cc(OC)c(OC)cc3[C@@H]2C[C@@H]1C[C@H]1NCCc2c1[nH]c1ccc(O)cc21.O=C(O)C(F)(F)F.O=C([O-])C(F)(F)F`, the Activity [3] is reported as “Active”, the Activity [1] is reported as “Non-Toxic” and the Activity [2] is reported as “Non-Toxic”.

In the case of `COC1=C[C@@H]2C3=C([C@@H]2C1=O)[C@@H](NC(C)=O)CCc1cc(OC)c(O[C@@H]2O[C@H](CO)[C@@H](O)[C@H](O)[C@H]2O)c(OC)c13`, the Activity [1] is reported as “Non-Toxic” and the Activity [2] is reported as “Non-Toxic”.

In the case of `CC[C@H]1CN2CCc3cc(O)c(OC)cc3[C@@H]2C[C@@H]1C[C@H]1NCCc2c1[nH]c1ccccc21.O=C(O)C(F)(F)F.O=C(O)C(F)(F)F`, the Activity [3] is reported as “Active”, the Activity [1] is reported as “Non-Toxic” and the Activity [2] is reported as “Non-Toxic”.

In the case of `CC[C@H]1C[N@+]2(O)CCc3cc(O)c(OC)cc3[C@@H]2C[C@@H]1C[C@@H]1NCCc2c1[nH]c1ccc(O)cc21.O=C(O)C(F)(F)F.O=C([O-])C(F)(F)F`, the Activity [3] is reported as “Active”, the Activity [1] is reported as “Non-Toxic” and the Activity [2] is reported as “Non-Toxic”.

With `COC1=C[C@@H]2C3=C([C@@H]2C1=O)[C@@H](NC=O)CCc1cc(OC)c(O)c(OC)c13` the Activity [1] was “Non-Toxic” and the Activity [2] was “Non-Toxic”.

With `CC[C@H]1C[N@@+]2(O)CCc3cc(O)c(OC)cc3[C@@H]2C[C@@H]1C[C@H]1NCCc2c1[nH]c1ccc(O)cc21.O=C(O)C(F)(F)F.O=C([O-])C(F)(F)F` the Activity [3] was “Active”, the Activity [1] was “Non-Toxic” and the Activity [2] was “Non-Toxic”.

With `CC[C@H]1C[N@+]2(O)CCc3cc(OC)c(OC)cc3[C@@H]2C[C@@H]1C[C@@H]1NCCc2c1[nH]c1ccc(O)cc21.O=C(O)C(F)(F)F.O=C([O-])C(F)(F)F` the Activity [3] was “Active”, the Activity [1] was “Non-Toxic” and the Activity [2] was “Non-Toxic”.

With `COc1cc2c(c(OC)c1OC)-c1ccc(OC)c(=O)cc1[C@@H](NC=O)CC2` the Activity [1] was “Non-Toxic” and the Activity [2] was “Non-Toxic”.

With `COC1=C[C@@H]2C3=C([C@@H]2C1=O)[C@@H](NC=O)CCc1cc(OC)c(OC)c(OC)c13` the Activity [1] was “Non-Toxic” and the Activity [2] was “Non-Toxic”.

For `CC[C@H]1CN2CCc3cc(O)c(OC)cc3[C@@H]2C[C@@H]1C[C@@H]1NCCc2c1[nH]c1ccc(O)cc21.O=C(O)C(F)(F)F.O=C(O)C(F)(F)F`, the Activity [3] was “Active”, the Activity [1] was “Non-Toxic” and the Activity [2] was “Non-Toxic”.

In the case of `CC[C@H]1CN2CCc3cc(OC)c(OC)cc3[C@@H]2C[C@@H]1C[C@H]1NCCc2c1[nH]c1ccc(O)cc21.O=C(O)C(F)(F)F.O=C(O)C(F)(F)F`, the Activity [3] is reported as “Active”, the Activity [1] is reported as “Non-Toxic” and the Activity [2] is reported as “Non-Toxic”.
